The record followed here is ChEMBL document CHEMBL3507680, “University of Dundee, Gates Library screen for HepG2 cell viability”.

A short description of this series: Human HepG2 cell viability assay in 384 well format. On the set-up: dose 125 nL, time 70.5 hour; cytotoxicity at 70.5 h: concentration not given beside the values. Type of series: toxicity, cell-based. As to conditions: HepG2 cells, read-out: Inhibition.
Turning to `COCCn1nc(C(=O)N2CCCC2c2cccc(F)c2)ccc1=O` (stereo unspecified), the cytotoxicity at 70.5 h was -8.14%.

In the case of `CC(=O)c1cccc(OCCCC(=O)N(C)Cc2ccccn2)c1`, the cytotoxicity at 70.5 h is -2.88%.

Turning to `COc1ccc(C(C)=O)c(OCC(=O)NC(C)c2ccc(F)cc2)c1` (stereo unspecified), the cytotoxicity at 70.5 h was -14.9%.

For the molecule `CCc1nnsc1C(=O)NC1CCN(c2ccccn2)CC1`, the cytotoxicity at 70.5 h was 11.2%.

As for `CN1CCN(Cc2ccccc2CNC(=O)c2ccc(Br)cc2F)CC1`, the cytotoxicity at 70.5 h is -4.3%.

In the case of `Cc1noc(C)c1CCC(=O)NC(C)c1nnc2n1CCC2` (stereo unspecified), the cytotoxicity at 70.5 h came to 8.52%.

Regarding `Cc1ccc(C(C)NC(=O)Nc2ccccc2CN2CCOCC2)o1` (stereo unspecified), the cytotoxicity at 70.5 h was -11.2%.

Regarding `CN(C(=O)C1CSCN1S(=O)(=O)c1ccc(F)cc1)C1CC1` (stereo unspecified), the cytotoxicity at 70.5 h was -9.65%.

As to `CC(C)C(C)NC(=O)Nc1ccccc1CN1CCOCC1` (stereo unspecified), the cytotoxicity at 70.5 h was -8.46%.

`c1cc(CNCc2ccnc(N3CCOCC3)c2)c2c(c1)OCCO2`: the cytotoxicity at 70.5 h is -9.77%.

`CC(=O)N(C)CC(=O)Nc1cccc(N2CCN(CC3CC3)CC2)c1`: the cytotoxicity at 70.5 h is -7.37%.

With `Cc1cn(CC(=O)NC2CCN(C(=O)C3CC3)CC2)c2ccccc12`, the cytotoxicity at 70.5 h was -9.4%.

As for `Cc1cc2n(n1)CC(CNC1CCN(c3ccc(F)cc3)CC1)CN2` (stereo unspecified), the cytotoxicity at 70.5 h was -5.25%.

`COCc1cccc(NC(C)C(=O)N(C)Cc2cccc(F)c2)c1` (stereo unspecified): the cytotoxicity at 70.5 h was -2.97%.

Take `COc1ccc(CNC(=O)CNc2cc3c(cc2Cl)OCCCO3)cc1`: the cytotoxicity at 70.5 h was -5.19%.

On to `CCc1ccc(C(=O)NC2CCN(c3cnn(C)c3)C2=O)o1` (stereo unspecified), for which the cytotoxicity at 70.5 h is -9%.

For `CCC(CC)c1cc(CNC(=O)N2CCOC(C)C2)on1` (stereo unspecified), the cytotoxicity at 70.5 h was -9.44%.

For the molecule `O=C1CC2(CCCCC2)CC(=O)N1CC(O)COCc1ccc(Cl)cc1` (stereo unspecified), the cytotoxicity at 70.5 h is -6.34%.

On to `CCOC(=O)NC(CNC(=O)CCc1ccccn1)CC(C)C` (stereo unspecified), for which the cytotoxicity at 70.5 h is -8.82%.

Turning to `Cc1cc2c(cc1C)C(NCc1nnc3n1CCCCC3)CCCO2` (stereo unspecified), the cytotoxicity at 70.5 h was -7.63%.

`Cc1ccc2c(c1)OCCCC2NCc1nnc2n1CCCCC2` (stereo unspecified): the cytotoxicity at 70.5 h was -6.04%.

As for `CCN1CCN(c2ccc(F)cc2C(C)NCc2noc(C)n2)CC1` (stereo unspecified), the cytotoxicity at 70.5 h was -7.42%.

With `CC(O)CN1CCN(C(=O)CN(C)c2cnccn2)CC1` (stereo unspecified), the cytotoxicity at 70.5 h is -8.51%.

Take `CC(O)CN1CCN(C(=O)CN(C)c2ccc(Cl)cn2)CC1` (stereo unspecified): the cytotoxicity at 70.5 h is -12.2%.

With `CC(CNC(=O)c1ccc(Cl)cc1I)N1CCCC1` (stereo unspecified), the cytotoxicity at 70.5 h was -8.19%.

`Clc1ccc2oc(C3CCN(Cc4cccnc4)CC3)nc2c1`: the cytotoxicity at 70.5 h was 22.9%.

Consider `O=C(NCC(=O)N1CCCCC1)c1ccc(Cl)cc1I`, for which the cytotoxicity at 70.5 h was -10.6%.

For the molecule `N#Cc1cccnc1NCCNC(=O)N1CCCC(C(F)(F)F)C1` (stereo unspecified), the cytotoxicity at 70.5 h was -11.9%.

Consider `CN(Cc1ccc(Cl)s1)C(=O)c1cccc(OCC(N)=O)c1`, for which the cytotoxicity at 70.5 h is -15.3%.

On to `O=C(NCCNc1ncccn1)N1CCCC(C(F)(F)F)C1` (stereo unspecified), for which the cytotoxicity at 70.5 h is -9.23%.

In the case of `O=C(Cc1ccc(F)cc1)NCCNCC1CNc2ccnn2C1` (stereo unspecified), the cytotoxicity at 70.5 h was determined as 16.6%.

With `CC(C(=O)NCc1ccnc(N(C)C)c1)n1cncn1` (stereo unspecified), the cytotoxicity at 70.5 h is -10.2%.

Take `O=C(c1cccnc1-n1cncn1)N1CCN(CC2CC2)CC1`: the cytotoxicity at 70.5 h was -7.39%.

`COC(=O)c1ccc(C(=O)NS(=O)(=O)c2cncc(Br)c2)cc1`: the cytotoxicity at 70.5 h was -3.96%.

For the molecule `N#Cc1ccc(C(=O)N2CCn3cc(CN4CCCCC4)nc3C2)cc1`, the cytotoxicity at 70.5 h was -11.7%.

For the molecule `COCC(=O)N1CCc2ncc(Cn3cncn3)n2CC1`, the cytotoxicity at 70.5 h is -16.6%.

`C[C@@H]1CN(C(=O)c2cccn2C)C[C@]12CCN(c1ccsc1)C2=O`: the cytotoxicity at 70.5 h is -13.8%.

As to `Cc1nc(NCC2CC2)nc2c1COCC21CCN(C(=O)C(C)(C)C)C1` (stereo unspecified), the cytotoxicity at 70.5 h was -18.4%.

On to `O=C(c1ncccn1)N1CCC[C@]2(C[C@H](OCC3CC3)CO2)C1`, for which the cytotoxicity at 70.5 h was -16.3%.

In the case of `O=C(c1ncccn1)N1CCC[C@]2(C[C@@H](OCC3CC3)CO2)C1`, the cytotoxicity at 70.5 h was -16.4%.

Regarding `O=C(c1ccc(F)c(F)c1)N1CCC[C@]2(C[C@@H](OCC3CC3)CO2)C1`, the cytotoxicity at 70.5 h was -12.6%.

With `O=C(c1ccncn1)N1CCC[C@]2(C[C@@H](OCC3CC3)CO2)C1`, the cytotoxicity at 70.5 h is -13.8%.

As to `COCC(=O)N1CCC2(CC1)CN(c1cncnc1)C(=O)CO2`, the cytotoxicity at 70.5 h is -12%.

For the molecule `C[C@H]1CN(C(=O)c2ccc[nH]2)C[C@@]12CCN(c1ccsc1)C2=O`, the cytotoxicity at 70.5 h was -5.02%.

As to `COCC(=O)N1CC[C@@H]2O[C@@H](C)C[C@H]2C1`, the cytotoxicity at 70.5 h was -12.2%.

On to `COCC(=O)N1CC[C@H]2O[C@@H](C)C[C@H]2C1`, for which the cytotoxicity at 70.5 h is -8.73%.

As to `O=C(c1ccnnc1)N1CCn2cc(CN3CCCCC3)nc2C1`, the cytotoxicity at 70.5 h is -4.84%.

`CC(=O)N1CCOC2(CCCN(C(=O)c3ccc(Cl)cc3)C2)C1` (stereo unspecified): the cytotoxicity at 70.5 h is -15.6%.

For the molecule `CCC1COC2(CCN(C(=O)c3ccco3)CC2)C1` (stereo unspecified), the cytotoxicity at 70.5 h was -9.86%.

For `Cc1ccc(C(=O)N2CC[C@H]3[C@H]2CCN3CC2CCOCC2)cn1`, the cytotoxicity at 70.5 h is -9.27%.

Take `Cc1cccc(C(=O)N2CCCn3c(CN4CCCCC4)nnc3C2)c1`: the cytotoxicity at 70.5 h is -11.1%.

For the molecule `Cn1nc(Cn2ccnc2)c2c1CN(C(=O)c1ccc[nH]1)C2`, the cytotoxicity at 70.5 h is -10.6%.

Take `CCN(C)c1ncnc2c1CCN(C(=O)c1cccn1C)CC2`: the cytotoxicity at 70.5 h is 21%.

As to `O=C(c1ccoc1)N1CCCn2nnc(COCC3CC3)c2C1`, the cytotoxicity at 70.5 h is -4.24%.

`CNC(=O)[C@@]12CCO[C@@H]1CCN(S(=O)(=O)c1ccc(C)cc1)C2`: the cytotoxicity at 70.5 h was -4.45%.

For the molecule `Cn1cc(C[C@H]2[C@H](N3CCOCC3)CCN2C(=O)c2ccc[nH]2)cn1`, the cytotoxicity at 70.5 h was -20.8%.

Turning to `O=C(c1cnccn1)N1CC[C@H]2[C@@H]1CCC(=O)N2c1cccnc1`, the cytotoxicity at 70.5 h was -17.4%.

For `CS(=O)(=O)CC(=O)N1C[C@@H]2CN(Cc3ccoc3)CCO[C@@H]2C1`, the cytotoxicity at 70.5 h is -12%.

`Cc1noc([C@@H]2CCO[C@@H]3CCN(Cc4cccs4)C[C@@H]32)n1`: the cytotoxicity at 70.5 h amounted to 9.6%.

On to `Cc1cnc(N2Cc3cnn(Cc4ccc(F)cc4)c3C2)nc1N(C)C`, for which the cytotoxicity at 70.5 h was -0.641%.

As for `Cc1ccc(NC(=O)CNC(C)CN2CCOCC2)c(F)c1` (stereo unspecified), the cytotoxicity at 70.5 h is -9.12%.

As for `Cc1ccccc1CN(CCN(C)C)Cc1ccc(C(=O)O)cc1`, the cytotoxicity at 70.5 h was -5.98%.

Turning to `Cn1ncc2c(N3CCS(=O)(=O)CC3)nc(C3CCCC3)nc21`, the cytotoxicity at 70.5 h is -6%.

With `CC(C)[C@H]1COC(=O)N1Cc1noc(-c2ccccc2)n1`, the cytotoxicity at 70.5 h was -7.59%.

`O=C(Nc1cnn(CC(=O)N2CCCO2)c1)c1ccccc1`: the cytotoxicity at 70.5 h turned out to be 8.2%.

Consider `O=C(NCCn1ccnc1C1CCOC1)c1cccnc1` (stereo unspecified), for which the cytotoxicity at 70.5 h is -1.19%.

With `O=S(=O)(NCC1COc2ccccc2C1)N1CCCC1` (stereo unspecified), the cytotoxicity at 70.5 h was -2.58%.

Turning to `c1cc(CNCc2ccc3c(c2)CCO3)cc(N2CCOCC2)n1`, the cytotoxicity at 70.5 h is -9.64%.

As to `O=C1NC2(CCNCC2)CC1c1ccccc1` (stereo unspecified), the cytotoxicity at 70.5 h turned out to be 30.9%.

As for `O=C1NC2(CCNCC2)CC1c1ccncc1` (stereo unspecified), the cytotoxicity at 70.5 h was 10.1%.

In the case of `Cc1cccc(C(=O)N2C[C@@H](C)[C@@]3(CCN(c4ccsc4)C3=O)C2)n1`, the cytotoxicity at 70.5 h is -16.4%.

With `Cc1ccc(C(=O)N2CC[C@H]3[C@H]2CCN3CC2CCOCC2)cc1F`, the cytotoxicity at 70.5 h came out at 3.15%.

Take `Cc1ccoc1C(=O)N1Cc2c(Cn3ccnc3)nn(C)c2C1`: the cytotoxicity at 70.5 h amounted to 20.4%.

With `O=C(c1ccccc1F)N1CCCn2c(CN3CCCCC3)nnc2C1`, the cytotoxicity at 70.5 h was -6.86%.

`Cc1cccc(COC[C@@H]2CC[C@H]3[C@H](CCN3C(=O)CC3CC3)O2)n1`: the cytotoxicity at 70.5 h is -6.33%.

As for `O=C(c1cccc(Cl)c1)N1CC[C@H]2[C@H]1CCN2CC1CC1`, the cytotoxicity at 70.5 h is -9.45%.

`O=C(c1ccccc1)N1CCCn2c(CN3CCCCC3)nnc2C1`: the cytotoxicity at 70.5 h is 26.2%.

Take `Cn1ccnc1CN1CCC2(CC1)CN(c1cncnc1)C(=O)CO2`: the cytotoxicity at 70.5 h is -3.27%.

As for `Cn1ccnc1CN1CCC2(CC(=O)N(c3ccsc3)C2)C1` (stereo unspecified), the cytotoxicity at 70.5 h was -8.8%.

On to `Cc1ccc(N2CC3(CCN(Cc4nccn4C)C3)CC2=O)s1` (stereo unspecified), for which the cytotoxicity at 70.5 h is -14.5%.

For the molecule `CCN(C)c1ncnc2c1CCN(CC1CCOC1)CC2` (stereo unspecified), the cytotoxicity at 70.5 h was -8.27%.

`Cn1cc(C(=O)N2CC[C@@H]3[C@@H]2CCN3Cc2ccccc2)cn1`: the cytotoxicity at 70.5 h was -15%.

For the molecule `O=C(c1cscn1)N1CCC2(CCN(Cc3nccs3)CC2)C1`, the cytotoxicity at 70.5 h was -23.5%.

For the molecule `CCN1C(=O)CCC12CCCN(Cc1nccs1)C2` (stereo unspecified), the cytotoxicity at 70.5 h is -13.8%.

For the molecule `CN1C(=O)CCC12CCCN(Cc1nccs1)C2` (stereo unspecified), the cytotoxicity at 70.5 h is 23.1%.

Regarding `CN(Cc1ccccn1)C1CC2(CCN(Cc3ccccn3)CC2)C1`, the cytotoxicity at 70.5 h was -10.9%.

With `CN(Cc1ccco1)[C@@H]1CN(Cc2ccc(F)cc2)[C@@H]2CCCO[C@H]12`, the cytotoxicity at 70.5 h came to 6.23%.

Consider `O=C(Cc1ccccn1)N1CCC2(CC1)CN(c1ncccn1)CCO2`, for which the cytotoxicity at 70.5 h was -10.3%.

On to `COCC1CN(C(=O)Cc2ccccn2)Cc2c1cnn2CC1CC1` (stereo unspecified), for which the cytotoxicity at 70.5 h is -13.1%.

As for `Cc1noc(C)c1CN1C[C@@H](N(C)Cc2ccco2)[C@H]2OCCC[C@H]21`, the cytotoxicity at 70.5 h was -6.48%.

For the molecule `Cc1noc(C)c1CN1CCN(C)c2ncccc2C1`, the cytotoxicity at 70.5 h is -5.95%.

For the molecule `Cn1ccnc1CN1CCC2(CC(=O)N(c3ccccn3)C2)C1` (stereo unspecified), the cytotoxicity at 70.5 h is -10.7%.

Consider `O=C(NCc1ccccn1)[C@@H]1CC[C@@H]2[C@@H](CCN2c2ncc(F)cn2)O1`, for which the cytotoxicity at 70.5 h was -11.3%.

For `Cn1cc(C(=O)N2CC[C@@H]3[C@@H]2CCN3Cc2ccncc2)cn1`, the cytotoxicity at 70.5 h is -12.1%.

Turning to `COc1ccc(CN2C[C@@H]3OCCN(CCN4CCCC4)[C@@H]3C2)cc1`, the cytotoxicity at 70.5 h is 11.2%.

As to `CCCc1ccc(C(=O)N2Cc3c(Cn4ccnc4)nn(C)c3C2)cc1`, the cytotoxicity at 70.5 h is -8.3%.
